# Assay results from patent publication US20150283139A1, “CANCER TREATMENT METHOD” (SmithKline Beecham (Cork) Limited, priority 2004, published 2015).
# Columns and labels:
# [1] = in vivo; cited from earlier work
# NSCLC adenocarcinoma = details: first-line gefitinib, Asian, female, non-smokers; cited from earlier work
# [2] = system: non small cell lung cancer (NSCLC) brain metastases; details: eight subjects with newly diagnosed, untreated NSCLC brain metastases; cited from earlier work
# [3] = system: brain metastases from erbB-2 overexpressing, metastatic breast cancer; assay: Clinical study of orally administered lapatinib, PET scan of brain lesions; format: in vivo, human; details: one patient, 750 mg lapatinib twice daily, previously treated with trastuzumab
# Text: Safety and efficacy assessments (independent review) were to be carried out at 2 and 4-week intervals respectively. PET scans were to be run at baseline, 1 week and 8 weeks and MRI at baseline, 8 weeks, and 16 weeks.
structure (smiles),measurement,setting,value
Cn1nnc2c(C(N)=O)ncn2c1=O [Temozolomide],crossing of the blood-brain barrier,[1],readily crosses the blood-brain barrier
COc1cc2ncnc(Nc3ccc(F)c(Cl)c3)c2cc1OCCCN1CCOCC1 [gefitinib],partial response rate,NSCLC adenocarcinoma,69%
same,systemic disease control rate,NSCLC adenocarcinoma,80%
same,subjects with prolonged CNS partial responses,[2],Seven out of eight
"CS(=O)(=O)CCNCc1ccc(-c2ccc3ncnc(Nc4ccc(OCc5cccc(F)c5)c(Cl)c4)c3c2)o1.Cc1ccc(S(=O)(=O)O)cc1 [lapatinib, N-{3-Chloro-4-[(3-fluorobenzyl)oxy]phenyl}-6-[5-({[2-(methanesulphonyl)ethyl]amino}methyl)-2-furyl]-4-quinazolinamine ditosylate monhydrate]",initial week 1 PET scan results (brain lesions),[3],promising activity with a dramatic change in one lesion while other brain lesions showed less change or no change at all
